Literature values as cited in PubChem BioAssay AID1259409 (Chemical Carcinogenesis Research Information System (CCRIS), 2018).

System: rodent chemically induced tumor inhibition, incidence and multiplicity
Assay: CCRIS tumor inhibitor studies

N#C[Se]Cc1ccccc1
tumour outcome (control, treated, inhibition, significance) (Carcinogen: 7,12-DIMETHYLBENZ[A]ANTHRACENE, 57-97-6, Dose [Inhibitor]: 0, 1 PPM (AS SELENIUM) IN DIET BEGINNING 2 WK PRIOR TO CARCINOGEN DOSE AND CONTINUING FOR DURATION OF STUDY (STUDY DURAT, Route [Inhibitor]: ORAL, Species: RAT, Strain/Sex: SPRAGUE-DAWLEY/FEMALE, Target Tissue: Type of Lesion: MAMMARY GLAND: ADENOCARCINOMA, Dose [Carcinogen]: 10 MG ONCE AT 55 D OF AGE, Promoter: NONE USED): 88%, 56%, 36%, p<0.05
tumour outcome (control, treated, inhibition, significance) (Carcinogen: 7,12-DIMETHYLBENZ[A]ANTHRACENE, 57-97-6, Dose [Inhibitor]: 0, 2 PPM (AS SELENIUM) IN DIET BEGINNING 2 WK PRIOR TO CARCINOGEN DOSE AND CONTINUING FOR DURATION OF STUDY (STUDY DURAT, Route [Inhibitor]: ORAL, Species: RAT, Strain/Sex: SPRAGUE-DAWLEY/FEMALE, Target Tissue: Type of Lesion: MAMMARY GLAND: ADENOCARCINOMA, Dose [Carcinogen]: 10 MG ONCE AT 55 D OF AGE, Promoter: NONE USED): 88%, 40%, 55%, p<0.05
tumour outcome (control, treated, inhibition, significance) (Carcinogen: 7,12-DIMETHYLBENZ[A]ANTHRACENE, 57-97-6, Dose [Inhibitor]: 0, 3 PPM (AS SELENIUM) IN DIET BEGINNING 2 WK PRIOR TO CARCINOGEN DOSE AND CONTINUING FOR DURATION OF STUDY (STUDY DURAT, Route [Inhibitor]: ORAL, Species: RAT, Strain/Sex: SPRAGUE-DAWLEY/FEMALE, Target Tissue: Type of Lesion: MAMMARY GLAND: ADENOCARCINOMA, Dose [Carcinogen]: 10 MG ONCE AT 55 D OF AGE, Promoter: NONE USED): 88%, 40%, 55%, p<0.05
tumour outcome (control, treated, inhibition, significance) (Carcinogen: 7,12-DIMETHYLBENZ[A]ANTHRACENE, 57-97-6, Dose [Inhibitor]: 0, 25 PPM IN DIET BEGINNING 2 WK PRIOR TO CARCINOGEN DOSE AND CONTINUING FOR 1 WK POST CARCINOGEN DOSE (STUDY DURATION:, Route [Inhibitor]: ORAL, Species: RAT, Strain/Sex: SPRAGUE-DAWLEY/FEMALE, Target Tissue: Type of Lesion: MAMMARY GLAND: TUMOR, Dose [Carcinogen]: 10 MG IN 1 ML OLIVE OIL ONCE AT 7 WK OF AGE, Promoter: NONE USED): 19/21 (91%), 13/21 (62%), 32%, p<0.05
tumour outcome (control, treated, inhibition, significance) (Carcinogen: BENZO[A]PYRENE, 50-32-8, Dose [Inhibitor]: 0, 0.045 UMOL/G DIET BEGINNING 1 WK PRIOR TO CARCINOGEN TREATMENT AND CONTINUING FOR 1 WK POST CARCINOGEN TREATMENT FOLL, Route [Inhibitor]: ORAL, Species: MOUSE, Strain/Sex: CD-1/FEMALE, Target Tissue: Type of Lesion: FORESTOMACH: PAPILLOMA, Dose [Carcinogen]: 1 MG IN 0.2 ML CORN OIL 2/WK FOR 4 WK, Promoter: NONE USED): 85%, 79%, 7%, not significant

O[C@@H](CS)[C@@H](O)CS
tumour outcome (control, treated, inhibition, significance) (Carcinogen: TRANS-5-AMINO-3-[2-(5-NITRO-2-FURYL)VINYL]-1,2,4-OXADIAZOLE;SQL8506, 28754-68-9, Carcinogen: TRANS-5-AMINO-3-[2-(5-NITRO-2-FURYL)VINYL]-1,2,4-OXADIAZOLE;SQL8506, 28754-68-9, Dose [Inhibitor]: 100 MG/KG 16 HR BEFORE THE 1ST CARCINOGEN DOSE FOLLOWED BY ADDITIONAL INJECTIONS IMMEDIATELY BEFORE EACH DOSE OF CARCINO, Route [Inhibitor]: INTRAPERITONEAL, Species: MOUSE, Strain/Sex: CD-1/FEMALE, Target Tissue: Type of Lesion: HEMATOPOIETIC SYSTEM: MYELOID LEUKEMIA, Dose [Carcinogen]: 1 G/KG 2/D FOR 5 D EVERY 4 WK FOR 3 COURSES OF TREATMENT, Promoter: NONE USED): 7/137 (5%), 0/30 (0%), 100%, not calculated
tumour outcome (control, treated, inhibition, significance) (Carcinogen: TRANS-5-AMINO-3-[2-(5-NITRO-2-FURYL)VINYL]-1,2,4-OXADIAZOLE;SQL8506, 28754-68-9, Carcinogen: TRANS-5-AMINO-3-[2-(5-NITRO-2-FURYL)VINYL]-1,2,4-OXADIAZOLE;SQL8506, 28754-68-9, Dose [Inhibitor]: 100 MG/KG 16 HR BEFORE THE 1ST CARCINOGEN DOSE FOLLOWED BY ADDITIONAL INJECTIONS IMMEDIATELY BEFORE EACH DOSE OF CARCINO, Route [Inhibitor]: INTRAPERITONEAL, Species: MOUSE, Strain/Sex: CD-1/FEMALE, Target Tissue: Type of Lesion: LYMPHOID TISSUE: NONTHYMIC LYMPHOMA, Dose [Carcinogen]: 1 G/KG 2/D FOR 5 D EVERY 4 WK FOR 3 COURSES OF TREATMENT, Promoter: NONE USED): 8/137 (6%), 2/30 (7%), -17%, not calculated
tumour outcome (control, treated, inhibition, significance) (Carcinogen: TRANS-5-AMINO-3-[2-(5-NITRO-2-FURYL)VINYL]-1,2,4-OXADIAZOLE;SQL8506, 28754-68-9, Carcinogen: TRANS-5-AMINO-3-[2-(5-NITRO-2-FURYL)VINYL]-1,2,4-OXADIAZOLE;SQL8506, 28754-68-9, Dose [Inhibitor]: 100 MG/KG 16 HR BEFORE THE 1ST CARCINOGEN DOSE FOLLOWED BY ADDITIONAL INJECTIONS IMMEDIATELY BEFORE EACH DOSE OF CARCINO, Route [Inhibitor]: INTRAPERITONEAL, Species: MOUSE, Strain/Sex: CD-1/FEMALE, Target Tissue: Type of Lesion: LYMPHOID TISSUE: THYMIC LYMPHOMA, Dose [Carcinogen]: 1 G/KG 2/D FOR 5 D EVERY 4 WK FOR 3 COURSES OF TREATMENT, Promoter: NONE USED): 22/137 (16%), 4/30 (13%), 19%, not calculated
tumour outcome (control, treated, inhibition, significance) (Carcinogen: TRANS-5-AMINO-3-[2-(5-NITRO-2-FURYL)VINYL]-1,2,4-OXADIAZOLE;SQL8506, 28754-68-9, Carcinogen: TRANS-5-AMINO-3-[2-(5-NITRO-2-FURYL)VINYL]-1,2,4-OXADIAZOLE;SQL8506, 28754-68-9, Dose [Inhibitor]: 100 MG/KG 16 HR BEFORE THE 1ST CARCINOGEN DOSE FOLLOWED BY ADDITIONAL INJECTIONS IMMEDIATELY BEFORE EACH DOSE OF CARCINO, Route [Inhibitor]: INTRAPERITONEAL, Species: MOUSE, Strain/Sex: CD-1/FEMALE, Target Tissue: Type of Lesion: STOMACH: SQUAMOUS CARCINOMA, Dose [Carcinogen]: 1 G/KG 2/D FOR 5 D EVERY 4 WK FOR 3 COURSES OF TREATMENT, Promoter: NONE USED): 60/137 (44%), 18/30 (60%), -36%, not calculated

COc1ccc2cc(CCC(C)=O)ccc2c1
tumour outcome (control, treated, inhibition, significance) (Carcinogen: N-METHYL-N-NITROSOUREA, 684-93-5, Dose [Inhibitor]: 0, 0.03% IN DIET FOR 24 WK BEGINNING 1 WK POST CARCINOGEN DOSE (STUDY DURATION: 25 WK), Route [Inhibitor]: ORAL, Species: RAT, Strain/Sex: SPRAGUE-DAWLEY/FEMALE, Target Tissue: Type of Lesion: MAMMARY GLAND: TUMOR, Dose [Carcinogen]: 50 MG/KG ONCE, Promoter: NONE USED): 24/30 (80%), 13/31 (42%), 48%, p<0.005

O=c1c(-c2ccc(O)cc2)coc2cc(O)ccc12
tumour outcome (control, treated, inhibition, significance) (Carcinogen: 7,12-DIMETHYLBENZ[A]ANTHRACENE (57-97-6), Dose [Inhibitor]: 105 MG/KG DIET FOR 17 WKS (STUDY DURATION: 17 WKS), Route [Inhibitor]: DIET, Species: RAT, Strain/Sex: SPRAGUE-DAWLEY/FEMALE (20,18)/(20,19), Target Tissue: Type of Lesion: MAMMARY, Dose [Carcinogen]: 12.5 MG ONCE 1 WK AFTER START OF DIET (STUDY DURATION: 17 WKS)): 95%, 85%, 11%, p=0.366
tumour outcome (control, treated, inhibition, significance) (Carcinogen: N-METHYL-N-NITROSOUREA, 684-93-5, Dose [Inhibitor]: 0, 1 MG/30 G BW 1/4 WK FOR 25 WK BEGINNING 5 WK POST CARCINOGEN TREATMENT (STUDY DURATION: 30 WK), Route [Inhibitor]: SUBCUTANEOUS, Species: MOUSE, Strain/Sex: ICR/FEMALE, Target Tissue: Type of Lesion: UTERUS (LEFT): ADENOCARCINOMA, Dose [Carcinogen]: 0.1 MG/KG BW INJECTED INTO LEFT UTERINE TUBE ONCE): 3/26 (11%), 0/14 (0%), 100%, not significant
tumour outcome (control, treated, inhibition, significance) (Carcinogen: N-METHYL-N-NITROSOUREA, 684-93-5, Dose [Inhibitor]: 0, 1 MG/30 G BW 1/4 WK FOR 25 WK BEGINNING 5 WK POST CARCINOGEN TREATMENT (STUDY DURATION: 30 WK), Route [Inhibitor]: SUBCUTANEOUS, Species: MOUSE, Strain/Sex: ICR/FEMALE, Target Tissue: Type of Lesion: UTERUS (LEFT): ADENOCARCINOMA, Dose [Carcinogen]: 0.1 MG/KG BW INJECTED INTO LEFT UTERINE TUBE ONCE, Promoter: 17-BETA-ESTRADIOL, 50-28-2): 8/24 (33%), 1/23 (4%), 87%, p<0.05

CCCCCCCCCCCCOC(=O)c1cc(O)c(O)c(O)c1
tumour outcome (control, treated, inhibition, significance) (Carcinogen: 7,12-DIMETHYLBENZ[A]ANTHRACENE, 57-97-6, Dose [Inhibitor]: 0, 10 UMOL IN 0.4 ML ACETONE 20 MIN PRIOR TO EACH PROMOTER DOSE (STUDY DURATION: 47 WK), Route [Inhibitor]: DERMAL, Species: MOUSE, Strain/Sex: CF-1/FEMALE, Target Tissue: Type of Lesion: SKIN: CARCINOMA, Dose [Carcinogen]: 100 NMOL IN 0.2 ML ACETONE ONCE): 67%, 17%, 75%, not calculated
tumour outcome (control, treated, inhibition, significance) (Carcinogen: 7,12-DIMETHYLBENZ[A]ANTHRACENE, 57-97-6, Dose [Inhibitor]: 0, 10 UMOL IN 0.4 ML ACETONE 20 MIN PRIOR TO EACH PROMOTER DOSE (STUDY DURATION: 47 WK), Route [Inhibitor]: DERMAL, Species: MOUSE, Strain/Sex: CF-1/FEMALE, Target Tissue: Type of Lesion: SKIN: PAPILLOMA, Dose [Carcinogen]: 100 NMOL IN 0.2 ML ACETONE ONCE): 94%, 90%, 4%, not calculated
